The values below come from patent US8575340B2, “Purine derivatives and their pharmaceutical uses” (GlaxoSmithKline LLC, priority 2010, dated 2013).

Holding throughout (type): cell-based
The subject of test [1] is Interferon-α. Description: Induction of Interferon-α using cryopreserved human PBMCs. The settings on record: PBMC, 24 hours incubation, normalised to 1 μM resiquimod and DMSO, read-out: mean pEC50 for induction of Interferon-α (converted). The protocol:
Assay for the Induction of Interferon-α using Cryopreserved Human Peripheral Blood Mononuclear Cells (PBMCs)
Compounds were dissolved in DMSO. Serial 2-fold dilutions with DMSO were prepared and 0.25 μL dispensed into 384-well clear Greiner polypropylene plates.
Blood samples of up to 200 mL were obtained from healthy human donors. Whole blood in 25 mL volumes was overlaid onto 15 mL Ficoll gradients in Leucosep tubes, and centrifuged at 1000 g for 20 minutes. Cells in the band at the plasma/histopaque interface were carefully removed and washed twice with PBS (centrifuged at 400 g for 5 min to harvest). The final pellet was resuspended in freezing medium (90% Heat-inactivated serum, 10% DMSO) to a cell concentration of 4×10^7 cells/mL. The resuspended cells were then cryopreserved (frozen) using a rate controlled freezer, and stored at −140° C. for up to 4 months.
Incubation and Assay for Interferon-α
Immediately prior to assay, vials of cryopreserved (frozen) PBMCs were thawed rapidly in a water bath at 37° C. A 1:10 dilution of the cells in trypan blue was prepared and counted. The PBMCs were then diluted in growth media [RPMI 1640 containing 10% fetal calf serum (invitrogen), Penicillin+[…] (Gibco cat. #25030-024, 1:50), L-Glutamine 2 mM, and 1000 units/mL recombinant human IFN-gamma (Preprotech catalogue #300-02)] to a density of 1×10^6 cells/mL, and 50 uL/well dispensed to 384-well clear Greiner polypropylene plates containing 0.25 μL DMSO or test compound in 0.25 μL DMSO. […] Plates were incubated for 24 hours at 37° C. in 5% CO2.
A multi-isoform immunoassay was used to quantify IFN-α in PBMC supernatants. Rabbit polyclonal antibody against human IFN-α (catalogue number 31101, Stratech Scientific) was diluted 1:10000 in assay buffer (RPMI 1640 containing 10% fetal calf serum, Invitrogen) and 20 μL was added to each well of an MSD (Meso-Scale Discovery) single small-spot 384-well GAR (goat anti-rabbit antibody coated) plate. The plate was incubated for 1 hour at room temperature with vigorous shaking. Following three washes with PBS, 20 μL of cell supernatant were added to each well of the plate. The plate was then incubated for 1 hour at room temperature with vigorous shaking. A pair of monoclonal antibodies to IFN-α (catalogue numbers 21100 and 21112, Stratech Scientific) were labelled with sulfo-TAG (MSD), diluted 1:1000 in assay buffer and 20 μL added to each well of the plate. The plate was further incubated for 1 hour at room temperature with vigorous shaking. Following three washes with PBS, 30 μL of ×2 T buffer (MSD) was added to each well and the plate was read on an MSD Sector 6000 plate reader.
Data were normalised to internal plate controls of 1 μM resiquimod (n=16) and DMSO (n=16). pEC50 values were derived by 4-parameter curve fit with IRLS in ActivityBase, from 11-point, two-fold serial dilution of test compounds.

The subject of test [2] is IFN-α. The test is described as follows: Induction of Interferon-α using fresh human PBMCs. The note with it: PBMC, two donors, 24 hours incubation, percentage of 2 μM resiquimod control, read-out: pEC50 for induction of IFN-α (converted). The protocol:
(§1) Assay for the Induction of Interferon-α and TNF-α using Fresh Human Peripheral Blood Mononuclear Cells (PBMCs)
(§2) Compounds were dissolved and serially diluted in DMSO to give 100× the required concentration range using a Biomek 2000. 1 μL of test compound was transferred into 96-well tissue culture plates using a Biomek FX. Each compound was assayed in duplicate for each donor. Each plate contained a dilution series of the TLR7/8 agonist resiquimod as standard and Column 11 contained 1 μL of 200 μM resiquimod (giving a 2 μM final concentration, used to define the approximate maximal response to resiquimod).
(§3) Blood samples from two human donors were collected into sodium heparin (10 U/mL). 25 mL volumes of whole blood were overlaid onto 15 mL Histopaque in Leucosep tubes which were centrifuged at 800 g for 20 min and the band at the plasma/histopaque interface carefully removed. The collected cells were centrifuged at 2500 rpm for 10 min and the pellet resuspended in 10 mL of media (RPMI 1640 (Low endotoxin) supplemented with 10% v/v foetal calf serum (FCS, low endotoxin) 100 U/mL penicillin G, 100 μg/mL streptomycin, 10 mM L-glutamine and 1× non-essential amino acids). A 1:20 dilution of the cells was prepared using trypan blue and the cells counted using a haemocytometer. The PBMCs were diluted to give a final concentration of 2×10^6/mL and 100 μL of this cells suspension was added to wells containing 1 μL of diluted test compound.
(§4) Incubation and Assays for Interferon-α and TNF-α
(§5) The cell preparations were incubated for 24 hours (37° C., 95% air, 5% CO2) after which a sample of the supernatant was removed using the Biomek FX and assayed for both IFN-α and TNF-α using the MSD (Mesoscale Discovery) electrochemiluminescence assay platform. The IFN-α assay was carried out similarly to that described above. […]
(§6) Cytokine released was expressed as a percentage of the 2 μM resiquimod control (column 11). This percentage was plotted against compound concentration and the pEC50 for the response determined by non-linear least squares curve fitting. […]

Test [3] has as its system TNF-α. The test is described as follows: Induction of TNF-α using fresh human PBMCs. The note with it: PBMC, two donors, 24 hours incubation, percentage of 2 μM resiquimod control, read-out: pEC50 for induction of TNF-α (converted). The protocol:
as §1, §2, §3, §4, §5, §6

As for `CCCCOc1nc(N)c2[nH]c(=O)n(CC3CCN(CCO)CC3)c2n1` [Example 6, 6-Amino-2-(butyloxy)-9-{[1-(2-hydroxyethyl)-4-piperidinyl]methyl}-7,9-dihydro-8H-purin-8-one], in test [1], the EC50 was under 1580 nM.
Still for that read-out and setting: the value for `CCCCOc1nc(N)c2[nH]c(=O)n(CCCCC3CCN(CCO)CC3)c2n1` [Example 9, 6-Amino-2-(butyloxy)-9-{4-[1-(2-hydroxyethyl)-4-piperidinyl]butyl}-7,9-dihydro-8H-purin-8-one] was under 1580 nM; that for `CCCCOc1nc(N)c2[nH]c(=O)n(CCCC3CCCCN3CCO)c2n1` (centres unmarked) [Example 1, 6-Amino-2-(butyloxy)-9-[3-[1-(2-hydroxyethyl)-2-piperidinyl]propyl]-7,9-dihydro-8H-purin-8-one] was under 1580 nM.
In the case of `CCCCOc1nc(N)c2[nH]c(=O)n(CCCCCC3CCN(CCO)CC3)c2n1` [Example 10, 6-Amino-2-(butyloxy)-9-{5-[1-(2-hydroxyethyl)-4-piperidinyl]pentyl}-7,9-dihydro-8H-purin-8-one], the values for the EC50 in test [1], in test [2] and in test [3] were under 1580 nM, 0.501 nM and 3160 nM, respectively.
As for `CCCCOc1nc(N)c2[nH]c(=O)n(CCCN3CCN(CCO)CC3)c2n1` [Example 11, 6-Amino-2-(butyloxy)-9-{3-[4-(2-hydroxyethyl)-1-piperazinyl]propyl}-7,9-dihydro-8H-purin-8-one], the EC50 in test [1] was under 1580 nM.
`CCCCOc1nc(N)c2[nH]c(=O)n(CCCCCN3CCN(CCOCC)CC3)c2n1` [Example 17, 6-Amino-2-(butyloxy)-9-(5-{4-[2-(ethyloxy)ethyl]-1-piperazinyl}pentyl)-7,9-dihydro-8H-purin-8-one]: the EC50 is under 1580 nM in test [1], 15.8 nM in test [2] and 5010 nM in test [3].
On to `CCCCOc1nc(N)c2[nH]c(=O)n(CCC3CCCN(CCO)C3)c2n1` (centres unmarked) [Example 3, 6-Amino-2-(butyloxy)-9-{2-[1-(2-hydroxyethyl)-3-piperidinyl]ethyl}-7,9-dihydro-8H-purin-8-one], for which the EC50 in test [1] was under 1580 nM.
For the compound `CCCCOc1nc(N)c2[nH]c(=O)n(CC3CCCN(CCO)C3)c2n1` (centres unmarked) [Example 2, 6-Amino-2-(butyloxy)-9-{[1-(2-hydroxyethyl)-3-piperidinyl]methyl}-7,9-dihydro-8H-purin-8-one], the figures for the EC50 in test [1], in test [2] and in test [3] were under 1580 nM, 63.1 nM and 15800 nM, respectively.
As to `CCCCOc1nc(N)c2[nH]c(=O)n(CCCC3CCCN(CCO)C3)c2n1` (centres unmarked) [Example 4, 6-Amino-2-(butyloxy)-9-{3-[1-(2-hydroxyethyl)-3-piperidinyl]propyl}-7,9-dihydro-8H-purin-8-one], the EC50 in test [1] is under 1580 nM.
The same measure, in the same setting: the result for `CCCCOc1nc(N)c2[nH]c(=O)n(CCCCC3CCCN(CCO)C3)c2n1` (centres unmarked) [Example 5, 6-Amino-2-(butyloxy)-9-{4-[1-(2-hydroxyethyl)-3-piperidinyl]butyl}-7,9-dihydro-8H-purin-8-one] reads under 1580 nM; that for `CCCCOc1nc(N)c2[nH]c(=O)n(CCCCCN3CCN(CCO)CC3)c2n1` [Example 15, 6-Amino-2-(butyloxy)-9-{5-[4-(2-hydroxyethyl)-1-piperazinyl]pentyl}-7,9-dihydro-8H-purin-8-one], under 1580 nM.
`CCCCOc1nc(N)c2[nH]c(=O)n(CCCCCN3CCN(CCOC)CC3)c2n1` [Example 16, 6-Amino-2-(butyloxy)-9-(5-{4-[2-(methyloxy)ethyl]-1-piperazinyl}pentyl)-7,9-dihydro-8H-purin-8-one]: the EC50 in test [1] was under 1580 nM.
For the compound `CCCCOc1nc(N)c2[nH]c(=O)n(CCCCN3CCN(CCO)CC3)c2n1` [Example 13, 6-Amino-2-(butyloxy)-9-{4-[4-(2-hydroxyethyl)-1-piperazinyl]butyl}-7,9-dihydro-8H-purin-8-one], the EC50 in test [1] was under 1580 nM.
Same read-out and setting: the value for `CCCCNc1nc(N)c2[nH]c(=O)n(CCCN3CCN(CCO)CC3)c2n1` [Example 12, 6-Amino-2-(butylamino)-9-[3-[4-(2-hydroxyethyl)-1-piperazinyl]propyl]-7,9-dihydro-8H-purin-8-one] was under 1580 nM; that for `CCCCOc1nc(N)c2[nH]c(=O)n(CCC3CCN(CCO)CC3)c2n1` [Example 7, 6-Amino-2-(butyloxy)-9-{2-[1-(2-hydroxyethyl)-4-piperidinyl]ethyl}-7,9-dihydro-8H-purin-8-one] was under 1580 nM; that for `CCCCOc1nc(N)c2[nH]c(=O)n(CCCC3CCN(CCO)CC3)c2n1` [Example 8, 6-Amino-2-(butyloxy)-9-{3-[1-(2-hydroxyethyl)-4-piperidinyl]propyl}-7,9-dihydro-8H-purin-8-one] was under 1580 nM.
Still for that read-out and setting: the result for `CCCCNc1nc(N)c2[nH]c(=O)n(CCCCN3CCN(CCO)CC3)c2n1` [Example 14, 6-Amino-2-(butylamino)-9-{4-[4-(2-hydroxyethyl)-1-piperazinyl]butyl}-7,9-dihydro-8H-purin-8-one] reads under 1580 nM.
